Measurements from PubChem BioAssay AID248 (DTP/NCI, 2004).
Values joined by “and” are separate entries in the source; they are usually repeats but may differ in a detail not shown here. Equal entries are not always repeated. Toxic doses and inconclusive results are not listed. Square brackets hold non-standard residues; d marks the D form. Peptide text beside a SMILES is read from it. * marks the point of attachment. ξ: configuration not given here. Cbz = O=C(OCc1ccccc1)*; OBn = c1ccc(CO*)cc1; ξP = O=C(O)C1CCCN1

Test system: L1210 leukemia ip in BDF1 mice, survival T/C
Assay: NCI In Vivo Anticancer Drug Screen. Data for tumor model L1210 Leukemia (intraperitoneal) in B6D2F1 (BDF1) mice
Conditions: endpoint: mean survival time, higher = longer survival
Procedure, shortened: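 Ratio derived from survival: compound-dosed mice over vehicle-dosed mice, all bearing a transplantable tumor.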

[1] = dose: 100.0 mg/kg/injection, schedule: Q01DX009 (ip), vehicle: saline with Tween-80
[2] = dose: 100.0 mg/kg/injection, schedule: Q04DX003 (ip), vehicle: saline with Tween-80
[3] = dose: 200.0 mg/kg/injection, schedule: Q01DX009 (ip), vehicle: saline with Tween-80
[4] = dose: 200.0 mg/kg/injection, schedule: Q04DX003 (ip), vehicle: saline with Tween-80
[5] = dose: 400.0 mg/kg/injection, schedule: Q01DX009 (ip), vehicle: saline with Tween-80
[6] = dose: 400.0 mg/kg/injection, schedule: Q04DX003 (ip), vehicle: saline with Tween-80
[7] = dose: 100.0 mg/kg/injection, schedule: Q04DX003 (ip), vehicle: Klucel (hydroxypropylcellulose) (HPC)
[8] = dose: 200.0 mg/kg/injection, schedule: Q04DX003 (ip), vehicle: Klucel (hydroxypropylcellulose) (HPC)
[9] = dose: 400.0 mg/kg/injection, schedule: Q04DX003 (ip), vehicle: Klucel (hydroxypropylcellulose) (HPC)
[10] = dose: 100.0 mg/kg/injection, schedule: Q04DX003 (ip), vehicle: saline
[11] = dose: 100.0 mg/kg/injection, schedule: Q01DX009 (ip), vehicle: Klucel (hydroxypropylcellulose) (HPC)
[12] = dose: 200.0 mg/kg/injection, schedule: Q01DX009 (ip), vehicle: Klucel (hydroxypropylcellulose) (HPC)
[13] = dose: 400.0 mg/kg/injection, schedule: Q01DX009 (ip), vehicle: Klucel (hydroxypropylcellulose) (HPC)
[14] = dose: 100.0 mg/kg/injection, schedule: Q01DX005 (ip), vehicle: saline
[15] = dose: 200.0 mg/kg/injection, schedule: Q01DX005 (ip), vehicle: saline

## NC(=O)CN1C(=O)c2ccccc2C1=O
[1]
  T/C: 97 % of control
[2]
  T/C: 97 % of control
[3]
  T/C: 89 % of control
[4]
  T/C: 97 % of control
[5]
  T/C: 91 % of control
[6]
  T/C: 97 % of control

## O=C(CNC(=O)OCc1ccccc1)NCC(=O)N1CCCC1C(=O)OCc1ccccc1 (stereo not drawn) (Cbz-Gly-Gly-[ξP]-OBn)
[7]
  T/C: 101 % of control
[8]
  T/C: 103 % of control
[9]
  T/C: 100 % of control

## Cc1c[n+]([O-])c(C)cc1N=Nc1ccc(N(C)C)cc1
dose: 50.0 mg/kg/injection, schedule: Q01DX009 (ip), vehicle: saline with Tween-80
  T/C: 111 % of control
[1]
  T/C: 95 % of control
dose: 100.0 mg/kg/injection, schedule: Q04DX002 (ip), vehicle: saline with Tween-80
  T/C: 89 % of control
[3]
  T/C: 90 % of control
dose: 200.0 mg/kg/injection, schedule: Q04DX002 (ip), vehicle: saline with Tween-80
  T/C: 99 % of control

## COC(=O)/C=C/N(Cc1ccccc1)Cc1ccccc1
[1]
  T/C: 103 % of control
[3]
  T/C: 95 % of control
[5]
  T/C: 91 % of control

## Cc1cccc(C(=O)CC(O)(C(F)(F)F)C(F)(F)F)c1
dose: 50.0 mg/kg/injection, schedule: Q04DX003 (ip), vehicle: saline with Tween-80
  T/C: 98 % of control
[2]
  T/C: 100 % of control
[4]
  T/C: 91 % of control
[6]
  T/C: 102 % of control

## CNCCOC
dose: 100.0 mg/kg/injection, schedule: Q04DX002 (ip), vehicle: saline
  T/C: 98 % of control

## O=C(Nc1ccc(C(=O)O)cc1)Nc1cc([N+](=O)[O-])ccc1F
[7]
  T/C: 92 % of control
[8]
  T/C: 94 % of control
[9]
  T/C: 94 % of control

## COc1cc(C=Nc2ccccc2)ccc1OC(=O)c1ccccc1
dose: 100.0 mg/kg/injection, schedule: Q04DX002 (ip), vehicle: gum acacia
  T/C: 103 % of control
dose: 200.0 mg/kg/injection, schedule: Q04DX002 (ip), vehicle: gum acacia
  T/C: 95 % of control
dose: 400.0 mg/kg/injection, schedule: Q04DX002 (ip), vehicle: gum acacia
  T/C: 88 % of control

## CC(C)(C)C1COP(=S)(C(C)(C)C)OC1 (centres undefined)
[7]
  T/C: 102 % of control
[8]
  T/C: 93 % of control

## Cc1nc(C[N+](C)(C)C)c2cnccn12
[10]
  T/C: 102 % of control

## Cc1ccc(S(=O)(=O)Nc2ccccc2SSc2ccccc2NS(=O)(=O)c2ccc(C)cc2)cc1
[1]
  T/C: 97 % of control
[2]
  T/C: 101 % of control
[3]
  T/C: 97 % of control
[4]
  T/C: 97 % of control
[5]
  T/C: 90 % of control
[6]
  T/C: 95 % of control

## CCCCN(Cc1ccccc1)C(=O)NC(C)(C)C
[11]
  T/C: 97 % of control
[12]
  T/C: 102 % of control
[13]
  T/C: 97 % of control

## CCOC(=O)c1cnc(SC)nc1Nc1cccc([N+](=O)[O-])c1
[11]
  T/C: 110 % of control
[7]
  T/C: 97 % of control
[12]
  T/C: 97 % of control
[8]
  T/C: 98 % of control
[13]
  T/C: 95 % of control
[9]
  T/C: 95 % of control

## CN(C)c1ncnc2c1ncn2C1OC(CO)C(N(C)C)C1O (centres undefined)
[14]
  T/C: 103 % of control
[15]
  T/C: 95 % of control

## O=C(Nc1ccc(C(=O)CCl)cc1)Nc1ccc(C(=O)CCl)cc1
[14]
  T/C: 100 % of control
[10]
  T/C: 101 % of control
[15]
  T/C: 102 % of control
dose: 200.0 mg/kg/injection, schedule: Q04DX003 (ip), vehicle: saline
  T/C: 104 % of control
dose: 400.0 mg/kg/injection, schedule: Q01DX005 (ip), vehicle: saline
  T/C: 103 % of control
dose: 400.0 mg/kg/injection, schedule: Q04DX003 (ip), vehicle: saline
  T/C: 93 % of control

## Nc1nc2ncc(CN(N=O)c3ccc(C(=O)NC(CCC(=O)O)C(=O)O)cc3)nc2c(=O)[nH]1 (centres undefined)
dose: 0.62 mg/kg/injection, schedule: Q01DX009 (ip), vehicle: water
  T/C: 98 % of control
dose: 1.25 mg/kg/injection, schedule: Q01DX009 (ip), vehicle: water
  T/C: 100 % of control
dose: 2.5 mg/kg/injection, schedule: Q01DX009 (ip), vehicle: water
  T/C: 98 % of control
dose: 5.0 mg/kg/injection, schedule: Q01DX009 (ip), vehicle: water
  T/C: 96 % of control
dose: 10.0 mg/kg/injection, schedule: Q01DX009 (ip), vehicle: water
  T/C: 98 % of control

## S=C1SCN(c2ccccc2)CN1c1ccccc1
[2]
  T/C: 88 % of control
[4]
  T/C: 88 % of control

## N=c1c2c(C(N)=O)cn(C3OC(CO)C(O)C3O)c2ncn1O (centres undefined)
dose: 2.5 mg/kg/injection, schedule: Q01DX001 (ip), vehicle: saline with Tween-80
  T/C: 122 % of control
dose: 5.0 mg/kg/injection, schedule: Q01DX001 (ip), vehicle: saline with Tween-80
  T/C: 117 % of control
dose: 10.0 mg/kg/injection, schedule: Q01DX001 (ip), vehicle: saline with Tween-80
  T/C: 123 % of control
dose: 10.0 mg/kg/injection, schedule: Q01DX001 (ip), vehicle: saline
  T/C: 153 % of control
dose: 20.0 mg/kg/injection, schedule: Q01DX001 (ip), vehicle: saline
  T/C: 180 % of control

## OCC1OC(c2[nH]nc3c([Se])ncnc23)C(O)C1O (centres undefined)
dose: 1.56 mg/kg/injection, schedule: Q01DX005 (ip), vehicle: saline
  T/C: 95 % of control
dose: 1.56 mg/kg/injection, schedule: Q01DX009 (ip), vehicle: saline
  T/C: 95 % of control
dose: 3.12 mg/kg/injection, schedule: Q01DX005 (ip), vehicle: saline
  T/C: 97 % of control
dose: 3.12 mg/kg/injection, schedule: Q01DX009 (ip), vehicle: saline
  T/C: 100 % of control
dose: 6.25 mg/kg/injection, schedule: Q01DX005 (ip), vehicle: saline
  T/C: 99 % of control
dose: 6.25 mg/kg/injection, schedule: Q01DX009 (ip), vehicle: saline
  T/C: 97 % of control
dose: 12.5 mg/kg/injection, schedule: Q01DX009 (ip), vehicle: saline
  T/C: 90 % of control

## S=C(S)Nc1cccc2ccccc12
dose: 12.5 mg/kg/injection, schedule: Q01DX009 (ip), vehicle: Klucel (hydroxypropylcellulose) (HPC)
  T/C: 103 % of control
dose: 12.5 mg/kg/injection, schedule: Q04DX003 (ip), vehicle: Klucel (hydroxypropylcellulose) (HPC)
  T/C: 100 % of control
dose: 25.0 mg/kg/injection, schedule: Q01DX009 (ip), vehicle: Klucel (hydroxypropylcellulose) (HPC)
  T/C: 98 % of control
dose: 25.0 mg/kg/injection, schedule: Q04DX003 (ip), vehicle: Klucel (hydroxypropylcellulose) (HPC)
  T/C: 94 % of control
dose: 50.0 mg/kg/injection, schedule: Q01DX009 (ip), vehicle: Klucel (hydroxypropylcellulose) (HPC)
  T/C: 92 % of control
dose: 50.0 mg/kg/injection, schedule: Q04DX003 (ip), vehicle: Klucel (hydroxypropylcellulose) (HPC)
  T/C: 100 % of control
[11]
  T/C: 94 % of control
[1]
  T/C: 89 % of control
[7]
  T/C: 98 % of control
[2]
  T/C: 93 % of control and 86 % of control
[12]
  T/C: 94 % of control
[3]
  T/C: 88 % of control
[8]
  T/C: 96 % of control
[4]
  T/C: 95 % of control and 86 % of control
[13]
  T/C: 99 % of control
[5]
  T/C: 104 % of control
[9]
  T/C: 91 % of control
[6]
  T/C: 101 % of control and 86 % of control

## CCN=C(Nc1ccc(C(=NC)NCC)cc1)c1ccc(C(=NCC)Nc2ccc(C(=NC)NCC)cc2)cc1
dose: 0.5 mg/kg/injection, schedule: Q01DX Z (ip), vehicle: saline
  T/C: 97 % of control
dose: 0.8 mg/kg/injection, schedule: Q01DX Z (ip), vehicle: saline
  T/C: 97 % of control
dose: 1.2 mg/kg/injection, schedule: Q01DX Z (ip), vehicle: saline
  T/C: 97 % of control
dose: 1.77 mg/kg/injection, schedule: Q01DX Z (ip), vehicle: saline
  T/C: 97 % of control and 89 % of control
dose: 2.66 mg/kg/injection, schedule: Q01DX Z (ip), vehicle: saline
  T/C: 93 % of control
dose: 4.0 mg/kg/injection, schedule: Q01DX Z (ip), vehicle: saline
  T/C: 96 % of control

## O=C(O)C1C(c2c3ccc(=O)c(O)c-3oc3c(O)c(O)ccc23)C2(Cl)C(Cl)=C(Cl)C1(Cl)C2(Cl)Cl (centres undefined)
dose: 50.0 mg/kg/injection, schedule: Q01DX009 (ip), vehicle: alcohol
  T/C: 92 % of control
dose: 100.0 mg/kg/injection, schedule: Q01DX009 (ip), vehicle: alcohol
  T/C: 92 % of control
dose: 100.0 mg/kg/injection, schedule: Q04DX003 (ip), vehicle: alcohol
  T/C: 100 % of control
dose: 200.0 mg/kg/injection, schedule: Q04DX003 (ip), vehicle: alcohol
  T/C: 95 % of control

## Nc1ncnc(N)c1N
dose: 100.0 mg/kg/injection, schedule: Q01DX001 (ip), vehicle: saline with Tween-80
  T/C: 104 % of control
dose: 200.0 mg/kg/injection, schedule: Q01DX001 (ip), vehicle: saline with Tween-80
  T/C: 105 % of control
dose: 400.0 mg/kg/injection, schedule: Q01DX001 (ip), vehicle: saline with Tween-80
  T/C: 98 % of control
